In ChEMBL document CHEMBL3414475, “Design, synthesis, and structure-activity relationship of novel LSD1 inhibitors based on pyrimidine-thiourea hybrids as potent, orally active antitumor agents” (J Med Chem, 2015):
Active and inactive are the calls of the source. No cut-off for these calls is given here.

What was measured:
[1] = biological target: Lysine-specific histone demethylase 1A (Homo sapiens, UniProt O60341)
Description: Inhibition of recombinant LSD1 (157 to 852) (unknown origin) transfected in Escherichia coli BL21(DE) by fluorescence assay

[2] = Antimetastatic activity in mouse B16F10 cells […] in C57BL/6 mouse assessed as lung metastatic nodule at 100 mg/kg, po administered for 14 days (reference value: 26.6 +/- 8.7); format: functional, B16-F10
[3] = biological target: T1, Amine oxidase [flavin-containing] A (Homo sapiens, UniProt P21397)
T1 sequence (P21397 whole entry): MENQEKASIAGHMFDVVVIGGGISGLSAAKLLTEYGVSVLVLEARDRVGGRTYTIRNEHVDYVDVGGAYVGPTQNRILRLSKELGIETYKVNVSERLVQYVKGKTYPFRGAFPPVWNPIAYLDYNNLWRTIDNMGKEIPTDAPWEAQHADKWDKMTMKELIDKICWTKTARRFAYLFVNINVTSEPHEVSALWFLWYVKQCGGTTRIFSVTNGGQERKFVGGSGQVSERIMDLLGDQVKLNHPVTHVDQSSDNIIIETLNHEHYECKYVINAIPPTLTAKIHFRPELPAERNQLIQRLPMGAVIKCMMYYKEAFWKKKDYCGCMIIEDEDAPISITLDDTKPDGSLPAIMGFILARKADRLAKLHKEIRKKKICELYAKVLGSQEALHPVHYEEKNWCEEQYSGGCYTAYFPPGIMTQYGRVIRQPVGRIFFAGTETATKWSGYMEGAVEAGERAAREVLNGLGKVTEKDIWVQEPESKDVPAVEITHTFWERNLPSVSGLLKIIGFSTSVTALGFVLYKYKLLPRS
Description: Inhibition of MAOA (unknown origin)

MGC-803 [4] = conditions: Homo sapiens, 1.25 to 5 uM
Description: Inhibition of epithelial-mesenchymal transition in human MGC803 cells assessed as down regulation of N-Cadherin at 1.25 to 5 uM after 48 hrs by Western blotting analysis

MGC-803 [5] = experiment: Induction of apoptosis in human MGC803 cells assessed as formation of apoptotic bodies at 2 to 8 uM after 24 hrs by Hoechst 33258 staining-based fluorescence microscopy; format: functional, cell-based
MGC-803 [6] = experiment: Antiinvasive activity against human MGC803 cells at >5 uM after 48 hrs by matrigel-coated transwell assay; format: functional, cell-based
Mus musculus [7] = experiment: Downregulation of Bcl2 expression in nude BALB/C mouse xenografted with human MGC803 cells at 50 to 100 mg/kg, po administered for 21 days; format: functional, organism-based; conditions: MGC-803
MGC-803 [8] = experiment: Induction of apoptosis in human MGC803 cells assessed as chromatin shrinkage at 2 to 8 uM after 24 hrs by Hoechst 33258 staining-based fluorescence microscopy; format: functional, cell-based
Mus musculus [9] = experiment: Toxicity in nude BALB/C mouse xenografted with human MGC803 cells assessed as weight loss at 50 to 100 mg/kg, po; format: organism-based, MGC-803; set-up: dose 50-100 mg/kg, route oral; conditions: in vivo
cells [10] = conditions: Homo sapiens, SGC-7901, 72 h
Description: Cytotoxicity against human SGC7901 cells after 72 hrs by MTT assay

MGC-803 [11] = experiment: Induction of apoptosis in human MGC803 cells assessed as crescent nuclei at 2 to 8 uM after 24 hrs by Hoechst 33258 staining-based fluorescence microscopy; format: functional, cell-based
MGC-803 [12] = experiment: animal or person; conditions: Mus musculus, MGC-803, po, 504 h, read-out: TGI
Description: Antitumor activity against human MGC803 cells xenografted in nude BALB/C mouse assessed as reduction of tumor weight at 50 mg/kg, po administered for 21 days relative to vehicle-treated control

MGC-803 [13] = experiment: Antimigratory activity against human MGC803 cells at >5 uM after 48 hrs by transwell assay; format: functional, cell-based
MGC-803 [14] = experiment: animal or person; conditions: Mus musculus, MGC-803, po, 504 h, read-out: TGI; remark: listed apart in the source
Description: Antitumor activity against human MGC803 cells xenografted in nude BALB/C mouse assessed as reduction of tumor weight at 100 mg/kg, po administered for 21 days relative to vehicle-treated control

cells [15] = conditions: Homo sapiens, GES1, 72 h
Description: Cytotoxicity against human GES-1 cells after 72 hrs by MTT assay

cells [16] = conditions: Homo sapiens, HGC-27, 72 h
Description: Cytotoxicity against human HGC27 cells after 72 hrs by MTT assay

MGC-803 [17] = experiment: Antiinvasive activity against human MGC803 cells at 1.25 to 5 uM after 48 hrs by wound healing assay; format: functional, cell-based
[18] = Induction of apoptosis in human MGC803 cells assessed as upregulation of Bax expression after 48 hrs by Western blotting analysis; format: functional, cell-based; conditions: MGC-803
MGC-803 [19] = experiment: cells; conditions: Homo sapiens, MGC-803, 72 h
Description: Cytotoxicity against human MGC803 cells after 72 hrs by MTT assay

MGC-803 [20] = experiment: Induction of apoptosis in human MGC803 cells assessed as down regulation of Bcl2 expression after 48 hrs by Western blotting analysis; format: functional, cell-based
MGC-803 [21] = experiment: Induction of apoptosis in human MGC803 cells assessed as formation of apoptotic bodies after 48 hrs by annexinV-FITC/propidium iodide staining-based flow cytometry; format: functional, cell-based
[22] = Antimetastatic activity in mouse B16F10 cells […] in C57BL/6 mouse assessed as lung metastatic nodule at 50 mg/kg, po administered for 14 days (reference value: 26.6 +/- 8.7); format: functional, B16-F10
Mus musculus [23] = experiment: Upregulation of Bax expression in nude BALB/C mouse xenografted with human MGC803 cells at 50 to 100 mg/kg, po administered for 21 days; format: functional, organism-based; conditions: MGC-803
[24] = biological target: T2, Amine oxidase [flavin-containing] B (Homo sapiens, UniProt P27338)
T2 sequence (P27338 whole entry): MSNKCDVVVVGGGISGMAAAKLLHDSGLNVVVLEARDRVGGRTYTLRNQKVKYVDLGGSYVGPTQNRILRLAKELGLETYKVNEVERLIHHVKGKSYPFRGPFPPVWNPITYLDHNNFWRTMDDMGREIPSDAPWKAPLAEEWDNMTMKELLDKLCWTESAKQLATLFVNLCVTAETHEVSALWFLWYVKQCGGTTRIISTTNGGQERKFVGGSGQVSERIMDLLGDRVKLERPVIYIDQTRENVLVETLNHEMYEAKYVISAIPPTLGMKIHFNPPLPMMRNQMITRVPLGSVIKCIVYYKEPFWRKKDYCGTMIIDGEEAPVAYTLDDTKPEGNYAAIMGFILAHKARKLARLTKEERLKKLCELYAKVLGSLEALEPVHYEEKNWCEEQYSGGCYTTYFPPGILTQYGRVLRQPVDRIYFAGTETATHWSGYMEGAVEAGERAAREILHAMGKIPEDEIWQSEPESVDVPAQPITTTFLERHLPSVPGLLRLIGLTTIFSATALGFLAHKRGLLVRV
Description: Inhibition of MAOB (unknown origin)

C#CCSc1nc(NNC(=N)N)c(C#N)c(-c2ccc([N+](=O)[O-])cc2)n1
IC50 [1]: > 125 µM

N#Cc1c(Cl)nc(SCc2cn(Cc3ccccc3Cl)nn2)nc1-c1ccc(Cl)cc1
IC50 [1]: > 125 µM

C#CCSc1nc(Nc2ccccc2Cl)c(C#N)c(-c2ccccc2)n1
IC50 [1]: > 125 µM

C#CCSc1nc(Cl)c(C#N)c(-c2ccc([N+](=O)[O-])cc2)n1
IC50 [1]: > 125 µM

C#CCSc1nc(Nc2ccc(OC)cc2)c(C#N)c(-c2ccccc2)n1
IC50 [1]: > 125 µM

C#CCSc1nc(Nc2ccc(F)cc2)c(C#N)c(-c2ccccc2)n1
IC50 [1]: > 125 µM

C#CCSc1nc(Nc2cccc(C(F)(F)F)c2)c(C#N)c(-c2cc(OC)c(OC)c(OC)c2)n1
IC50 [1]: > 125 µM

COc1cc(-c2nc(SCc3ccc(F)cc3)nc(NNC(N)=S)c2C#N)cc(OC)c1OC
IC50 [1]: > 125 µM

C#CCSc1nc(Cl)c(C#N)c(-c2cccc(Cl)c2)n1
IC50 [1]: > 125 µM

C#CCSc1nc(Nc2ccc(OC)cc2)c(C#N)c(-c2ccc(Cl)cc2)n1
IC50 [1]: > 125 µM

C#CCSc1nc(Nc2ccc(Cl)cc2)c(C#N)c(-c2ccccc2)n1
IC50 [1]: > 125 µM

C#CCSc1nc(Nc2cccc(Cl)c2)c(C#N)c(-c2ccccc2)n1
IC50 [1]: > 125 µM

C#CCSc1nc(Nc2cccc(C(F)(F)F)c2)c(C#N)c(-c2ccccc2)n1
IC50 [1]: > 125 µM

C#CCSc1nc(Nc2cccc(C(F)(F)F)c2)c(C#N)c(-c2ccc(Cl)cc2)n1
IC50 [1]: > 125 µM

C#CCSc1nc(Nc2ccc(Cl)cc2)c(C#N)c(-c2ccc(Br)cc2)n1
IC50 [1]: > 125 µM

C#CCSc1nc(Nc2ccc([N+](=O)[O-])cc2)c(C#N)c(-c2ccccc2)n1
IC50 [1]: > 125 µM

C#CCSc1nc(NNC(N)=S)c(C#N)c(-c2cc(OC)c(OC)c(OC)c2)n1
Activity [2]: 8.4
IC50 [3]: > 1250 µM
inhibition (MGC-803 [4]): Active
Activity (MGC-803 [5]): Active
Activity (MGC-803 [6]): Active
Activity (Mus musculus [7]): Active
Activity (MGC-803 [8]): Active
Activity (Mus musculus [9]): Non-toxic
IC50 (cells [10]): 67.5 µM
Activity (MGC-803 [11]): Active
inhibition in vivo at 50 mg/kg (MGC-803 [12]): 55.1%
Activity (MGC-803 [13]): Active
inhibition in vivo at 100 mg/kg (MGC-803 [14]): 72.1%
IC50 (cells [15]): 58.9 µM
IC50 (cells [16]): 8.92 µM
Activity (MGC-803 [17]): Active
Activity [18]: Dose-dependent effect
IC50 (MGC-803 [19]): 4.01 µM
Activity (MGC-803 [20]): Dose-dependent effect
Activity (MGC-803 [21]): Dose-dependent effect
Activity [22]: 12.1
Activity (Mus musculus [23]): Active
IC50 [24]: > 1250 µM

C#CCSc1nc(Nc2ccc(OC)cc2)c(C#N)c(-c2cc(OC)c(OC)c(OC)c2)n1
IC50 [1]: > 125 µM

C#CCSc1nc(Nc2ccc(C)cc2)c(C#N)c(-c2ccccc2)n1
IC50 [1]: > 125 µM
